Like-named read-outs stand apart in the source and are kept apart here.
Columns and labels:
[1] = target: Ba/F3-FGFR1-transfected cells (Homo sapiens, UniProt P11362); test: Ba/F3-FGFR1 (minus IL3) cellular proliferation assay, Alamar Blue; format: cell-based; conditions: for BAF3-FGFR 1 (MIN IL3) 384 well pIC50: minus IL3, 384 well; for BAF3-FGFR 1 (MIN IL3) 96 well pIC50: minus IL3, 96 well
Procedure: (§1) Ba/F3-FGFR1 (Minus IL3 or Plus IL3) (Cellular Proliferation Assay)
(§2) Cells were put in an incubator at 37° C. and 5% CO2. After 24 hours, 10 μl of Alamar Blue solution (0.5 mM K3Fe(CN)6, 0.5 mM KaFe(CN)6, 0.15 mM Resazurin and 100 mM Phosphate Buffer) was added to the wells, incubated for 4 hours at 37° C. and 5% CO2 before RFU's (Relative Fluorescence Units) (ex. 540 nm., em. 590 nm.) were measured in a flurorescence plate reader. […]
(§3) In a 96 well plate, 180 μl cell culture medium (phenol red free RPMI-1640, 10% FBS, 2 mM L-Glutamine and 50 μg/ml Gentamycin) containing 10000 cells per well of Ba/F3-FGFR1-transfected cells were pipette and 20 μl of compound dilution in DMSO was added. Cells were put in an incubator at 37° C. and 5% CO2. After 24 hours, 40 μl of Alamar Blue solution (0.5 mM K3Fe(CN)6, 0.5 mM KaFe(CN)6, 0.15 mM Resazurin and 100 mM Phosphate Buffer) was added to the wells, incubated for 4 hours at 37° C. and 5% CO2 before RFU's (Relative Fluorescence Units) (ex. 540 nm., em. 590 nm.) were measured in a flurorescence plate reader.

[2] = tested on: Ba/F3-FGFR1-transfected cells in the presence of 10 ng/ml murine IL3; test: Ba/F3-FGFR1 (plus IL3) cellular proliferation counterscreen, Alamar Blue; format: cell-based; conditions: for IC50: Mus musculus
Procedure: as §1
as §3, with “a 384” for “a 96”, “plate, 100 nl of compound dilution in DMSO was sprayed before adding 50” for “plate, 180”, “containing 20000” for “containing 10000”, “Ba/F3-FGFR1-transfected cells.” for “Ba/F3-FGFR1-transfected cells were pipette and 20 μl of compound dilution in DMSO was added.”, “hours, 10” for “hours, 40”
As a counterscreen the same experiment was performed in the presence of 10 ng/ml murine IL3.
as §3

[3] = target: FGFR1 (h) (Homo sapiens, UniProt P11362); test: FGFR1 (enzymatic assay), TR-FRET; format: biochemical; conditions: read-out: FGFR 1 pIC50 (converted)
FGFR1 (h), sequence (P11362 22-822): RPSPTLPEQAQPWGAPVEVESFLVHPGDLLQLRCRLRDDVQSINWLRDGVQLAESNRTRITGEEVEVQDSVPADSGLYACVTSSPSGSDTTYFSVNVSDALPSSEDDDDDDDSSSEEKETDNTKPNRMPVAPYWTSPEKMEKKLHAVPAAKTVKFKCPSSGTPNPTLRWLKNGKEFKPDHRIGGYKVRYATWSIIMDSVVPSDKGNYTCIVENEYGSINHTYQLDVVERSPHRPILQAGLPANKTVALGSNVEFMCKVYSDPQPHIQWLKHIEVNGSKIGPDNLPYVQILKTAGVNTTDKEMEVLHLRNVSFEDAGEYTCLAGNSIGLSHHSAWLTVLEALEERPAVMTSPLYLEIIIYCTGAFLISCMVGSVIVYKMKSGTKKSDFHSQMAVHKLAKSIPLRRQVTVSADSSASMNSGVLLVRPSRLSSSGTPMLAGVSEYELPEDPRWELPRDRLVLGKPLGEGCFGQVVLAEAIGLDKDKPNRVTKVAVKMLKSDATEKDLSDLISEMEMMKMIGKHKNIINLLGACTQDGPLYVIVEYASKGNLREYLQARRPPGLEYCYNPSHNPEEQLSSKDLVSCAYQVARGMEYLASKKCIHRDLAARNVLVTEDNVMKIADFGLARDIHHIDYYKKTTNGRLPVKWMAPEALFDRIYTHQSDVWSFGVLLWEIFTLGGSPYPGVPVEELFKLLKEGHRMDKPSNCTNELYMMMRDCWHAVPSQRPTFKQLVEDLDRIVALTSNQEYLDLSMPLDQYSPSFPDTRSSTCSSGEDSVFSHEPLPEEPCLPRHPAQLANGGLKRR
Procedure: (§4) In a final reaction volume of 30 μL, FGFR1 (h) (25 ng/ml) was incubated with 50 mM HEPES pH 7.5, 6 mM MnCl2, 1 mM DTT, 0.1 mM Na3VO4, 0.01% Triton-X-100, 500 nM Btn-Flt3 and 5 μM ATP in the presence of compound (1% DMSO final). […] Time-Resolved Fluorescence Resonance Energy Transfer (TR-FRET) signal (ex340 nm. Em 620 nm, em 655 nm) was measured afterwards and results are expressed in RFU (Relative Fluorescence Units).

[4] = target: Ba/F3-FGFR3-transfected cells (Homo sapiens, UniProt P22607); test: Ba/F3-FGFR3 (minus IL3) cellular proliferation assay, Alamar Blue; format: cell-based; conditions: for BAF3-FGFR 3 (MIN IL3) 384 well pIC50: minus IL3, 384 well; for BAF3-FGFR 3 (MIN IL3) 96 well pIC50: minus IL3, 96 well
Ba/F3-FGFR3-transfected cells, sequence (P22607 whole entry, change not shown): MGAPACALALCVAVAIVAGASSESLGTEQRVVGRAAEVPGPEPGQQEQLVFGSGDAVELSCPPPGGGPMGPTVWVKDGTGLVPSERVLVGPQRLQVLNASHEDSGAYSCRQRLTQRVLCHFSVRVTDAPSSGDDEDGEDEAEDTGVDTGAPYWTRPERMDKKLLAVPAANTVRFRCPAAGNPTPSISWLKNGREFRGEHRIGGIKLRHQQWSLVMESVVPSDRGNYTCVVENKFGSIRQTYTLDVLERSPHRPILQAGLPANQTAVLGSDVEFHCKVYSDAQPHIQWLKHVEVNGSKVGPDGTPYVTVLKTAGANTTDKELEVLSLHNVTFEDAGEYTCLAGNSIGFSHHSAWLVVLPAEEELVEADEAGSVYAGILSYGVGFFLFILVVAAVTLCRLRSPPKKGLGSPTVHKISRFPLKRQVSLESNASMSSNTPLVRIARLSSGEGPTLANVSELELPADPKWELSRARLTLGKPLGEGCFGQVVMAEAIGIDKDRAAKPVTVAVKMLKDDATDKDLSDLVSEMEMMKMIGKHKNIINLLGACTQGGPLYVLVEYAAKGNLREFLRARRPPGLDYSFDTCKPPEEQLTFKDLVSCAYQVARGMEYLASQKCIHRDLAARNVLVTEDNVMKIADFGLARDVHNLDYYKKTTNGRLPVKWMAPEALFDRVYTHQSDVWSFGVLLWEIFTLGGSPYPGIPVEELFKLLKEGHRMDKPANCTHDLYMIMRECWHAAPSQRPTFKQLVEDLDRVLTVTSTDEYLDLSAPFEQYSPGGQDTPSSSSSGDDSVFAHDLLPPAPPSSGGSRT
Procedure: Ba/F3-FGFR3 (Minus IL3 or Plus IL3) (Cellular Proliferation Assay)
as §2
as §3, with “Ba/F3-FGFR3-transfected” for “Ba/F3-FGFR1-transfected”

[5] = target: FGFR2 (h) (Homo sapiens, UniProt P21802); test: FGFR2 (enzymatic assay), TR-FRET; format: biochemical; conditions: read-out: FGFR 2 pIC50 (converted)
FGFR2 (h), sequence (P21802 22-821): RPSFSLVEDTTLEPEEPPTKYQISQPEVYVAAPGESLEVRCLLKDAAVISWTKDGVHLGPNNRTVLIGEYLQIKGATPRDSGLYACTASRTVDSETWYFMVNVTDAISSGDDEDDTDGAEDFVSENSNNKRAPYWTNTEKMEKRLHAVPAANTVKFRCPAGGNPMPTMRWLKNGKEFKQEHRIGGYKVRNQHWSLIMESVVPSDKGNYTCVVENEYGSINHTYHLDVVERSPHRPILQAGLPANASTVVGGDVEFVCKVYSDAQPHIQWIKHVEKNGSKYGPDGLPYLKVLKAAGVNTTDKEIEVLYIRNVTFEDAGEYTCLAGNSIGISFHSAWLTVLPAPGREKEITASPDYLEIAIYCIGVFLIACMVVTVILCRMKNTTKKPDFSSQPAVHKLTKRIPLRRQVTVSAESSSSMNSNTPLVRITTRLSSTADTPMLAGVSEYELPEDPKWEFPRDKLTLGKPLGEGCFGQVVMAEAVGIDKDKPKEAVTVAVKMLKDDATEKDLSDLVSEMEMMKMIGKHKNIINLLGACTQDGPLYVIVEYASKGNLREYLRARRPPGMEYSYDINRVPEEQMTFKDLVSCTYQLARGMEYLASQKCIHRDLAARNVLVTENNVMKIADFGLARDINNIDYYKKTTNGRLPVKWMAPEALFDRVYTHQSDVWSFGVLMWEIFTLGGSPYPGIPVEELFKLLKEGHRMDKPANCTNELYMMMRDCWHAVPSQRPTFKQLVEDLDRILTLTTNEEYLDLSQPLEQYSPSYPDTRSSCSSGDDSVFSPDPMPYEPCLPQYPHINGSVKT
Procedure: as §4, with “μL, FGFR2” for “μL, FGFR1”, “(h) (150” for “(h) (25”, “and 0.4” for “and 5”, “in” for “in RFU”

[6] = target: Ba/F3-FGFR4-transfected cells (Homo sapiens, UniProt P22455); test: Ba/F3-FGFR4 cellular proliferation assay, Alamar Blue; format: cell-based
Ba/F3-FGFR4-transfected cells, sequence (P22455 whole entry, change not shown): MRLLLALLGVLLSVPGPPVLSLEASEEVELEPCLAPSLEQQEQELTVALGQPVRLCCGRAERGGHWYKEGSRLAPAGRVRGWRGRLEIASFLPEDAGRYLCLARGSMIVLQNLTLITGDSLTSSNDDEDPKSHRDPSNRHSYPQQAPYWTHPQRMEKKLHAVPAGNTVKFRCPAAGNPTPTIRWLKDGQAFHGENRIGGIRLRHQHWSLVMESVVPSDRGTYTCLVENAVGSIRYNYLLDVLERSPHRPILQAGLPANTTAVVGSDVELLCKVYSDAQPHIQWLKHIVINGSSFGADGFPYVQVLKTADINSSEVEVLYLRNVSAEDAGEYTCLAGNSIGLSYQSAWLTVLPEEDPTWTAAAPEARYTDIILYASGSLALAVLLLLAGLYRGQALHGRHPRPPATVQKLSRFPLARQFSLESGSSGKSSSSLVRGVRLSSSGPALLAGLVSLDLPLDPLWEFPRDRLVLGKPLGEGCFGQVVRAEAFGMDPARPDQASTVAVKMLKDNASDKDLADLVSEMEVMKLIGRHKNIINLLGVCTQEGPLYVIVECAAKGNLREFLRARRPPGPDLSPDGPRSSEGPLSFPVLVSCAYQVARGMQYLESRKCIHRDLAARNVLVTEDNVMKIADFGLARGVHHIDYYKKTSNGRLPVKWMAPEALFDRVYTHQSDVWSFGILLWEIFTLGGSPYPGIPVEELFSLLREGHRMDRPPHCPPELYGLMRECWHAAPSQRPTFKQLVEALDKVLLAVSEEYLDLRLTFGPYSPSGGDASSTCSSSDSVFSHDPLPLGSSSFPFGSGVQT
Procedure: Ba/F3-FGFR4 (Cellular Proliferation Assay)
as §3, with “a 384” for “a 96”, “plate, 100 nl of compound dilution in DMSO was sprayed before adding 50” for “plate, 180”, “containing 20000” for “containing 10000”, “of Ba/F3-FGFR4-transfected cells.” for “of Ba/F3-FGFR1-transfected cells were pipette and 20 μl of compound dilution in DMSO was added.”, “hours, 10” for “hours, 40”

[7] = plus IL3, 384 well, read-out: BAF3-FGFR 1 (PLUS IL3) 384 well pIC50 (converted)

Ba/F3-FGFR1-transfected cells, sequence (P11362 whole entry, change not shown): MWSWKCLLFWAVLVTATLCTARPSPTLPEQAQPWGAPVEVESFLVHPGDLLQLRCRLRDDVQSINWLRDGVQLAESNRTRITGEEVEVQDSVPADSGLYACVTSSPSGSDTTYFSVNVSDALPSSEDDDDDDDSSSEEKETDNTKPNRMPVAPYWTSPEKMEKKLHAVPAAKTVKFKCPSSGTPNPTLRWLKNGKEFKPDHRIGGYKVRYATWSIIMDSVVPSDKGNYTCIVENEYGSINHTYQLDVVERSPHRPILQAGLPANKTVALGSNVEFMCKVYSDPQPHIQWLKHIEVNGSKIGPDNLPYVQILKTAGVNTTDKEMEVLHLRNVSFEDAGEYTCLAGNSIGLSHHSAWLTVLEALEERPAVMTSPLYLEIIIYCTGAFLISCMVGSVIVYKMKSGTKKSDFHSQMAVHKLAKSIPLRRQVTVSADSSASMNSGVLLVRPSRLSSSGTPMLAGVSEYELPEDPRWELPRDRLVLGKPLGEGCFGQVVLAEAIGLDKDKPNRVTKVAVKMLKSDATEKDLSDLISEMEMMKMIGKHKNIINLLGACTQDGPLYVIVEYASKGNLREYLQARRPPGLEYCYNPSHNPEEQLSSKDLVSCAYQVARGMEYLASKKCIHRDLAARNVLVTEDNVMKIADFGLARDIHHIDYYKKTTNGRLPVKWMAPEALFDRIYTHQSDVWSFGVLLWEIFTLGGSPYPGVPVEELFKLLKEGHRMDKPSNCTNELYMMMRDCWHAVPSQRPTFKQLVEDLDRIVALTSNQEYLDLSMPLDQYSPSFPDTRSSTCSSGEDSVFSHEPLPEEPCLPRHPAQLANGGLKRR

SMILES | BAF3-FGFR 1 (MIN IL3) 384 well pIC50 [1] | IC50 [2, 7] [nM] | IC50 [3] [nM] | BAF3-FGFR 3 (MIN IL3) 384 well pIC50 [4] | IC50 [5] [nM] | BAF3-FGFR4 pIC50 [6] | BAF3-FGFR 1 (PLUS IL3) 384 well pIC50 ([2]; plus IL3, 384 well) | BAF3-FGFR 3 (MIN IL3) 96 well pIC50 [4] | BAF3-FGFR4 pIC50 ([6]; 384 well) | BAF3-FGFR 1 (MIN IL3) 96 well pIC50 [1] | IC50 ([2]; plus IL3, 96 well, read-out: BAF3-FGFR 1 (PLUS IL3) 96 well pIC50 (converted)) [nM]
COCC(O)CN(c1cc(OC)cc(OC)c1)c1ccc2ncc(-c3cccnc3)nc2c1 (single isomer, unassigned) [Compound 46] | 6.49 | > 10000 | 12.6 | 6.65 | 12 | 5.8 |  |  |  |  | 
COCC(O)CN(c1cc(OC)cc(OC)c1)c1ccc2ncc(-c3cccnc3)nc2c1 (single isomer, unassigned) [Compound 47] | 6.29 |  | 21.4 | 6.3 | 17.4 | 5.5 | <5 |  |  |  | 
COCC(CN(c1cc(OC)cc(OC)c1)c1ccc2ncc(-c3cccnc3)nc2c1)OC(C)=O (single isomer, unassigned) [Compound 52] | 5.96 | > 10000 | 87.1 | ~6.17 | 91.2 | 5.2 |  |  |  |  | 
COCC(CN(c1cc(OC)cc(OC)c1)c1ccc2ncc(-c3cccnc3)nc2c1)OC(C)=O (single isomer, unassigned) [Compound 76] | 6.3 |  | 11.7 | 6.59 | 20 | 5.6 | <5 |  |  |  | 
COc1cc(OC)cc(N(CC#Cc2ncccn2)c2ccc3ncc(-c4cccnc4)nc3c2)c1 [Compound 2] | 6.8 | 7410 | 83.2 | 7.13 | 34.7 | 6.9 |  |  |  |  | 
COc1cc(OC)cc(N(CCCNCC(F)(F)F)c2ccc3ncc(-c4ccn(C)c4)nc3c2)c1 [Compound 5] | 5.99 | > 10000 | 6.92 | 6.57 | 15.1 | 5.7 |  |  |  |  | 
COc1cc(OC)cc(N(CCO)c2ccc3ncc(-c4ccc(N5CCOCC5)nc4)nc3c2)c1 [Compound 19] | 6.41 | > 10000 | 3.89 | 6.17 | 10.7 | 6.1 |  |  |  |  | 
COc1cc(OC)cc(N(CCO)c2ccc3ncc(N4CCC(CN)CC4)nc3c2)c1 [Compound 84] | 5.05 |  | 44.7 | <5 | 91.2 | <5 |  |  |  |  | 
COc1cc(OC)cc(N(CC2CC2)c2ccc3ncc(-c4nnc(C)o4)nc3c2)c1 [Compound 85] | <5 |  | 302 | <5 | 380 |  |  | 5.06 | <5 |  | 
COc1cc(OC)cc(N(CC2CC2)c2ccc3ncc(-c4ccc5[nH]ccc5c4)nc3c2)c1 [Compound 86] | <5 |  | 513 | <5 | 1820 |  |  | 5.4 | <5 |  | 
COc1cc(OC)cc(N(CC2CC2)c2ccc3ncc(-c4ccc5c(c4)OCO5)nc3c2)c1 [Compound 87] | <5.4 |  | 617 | <5.4 | 955 |  |  |  | <5 |  | 
COc1cc(OC)cc(N(CC2CC2)c2ccc3ncc(-c4cnc5[nH]ccc5c4)nc3c2)c1 [Compound 88] | <5 |  | 575 | <5 | 1150 |  |  | <5 | <5 |  | 
COc1cc(OC)cc(N(CC2CC2)c2ccc3ncc(-c4ccnc(N5CCOCC5)c4)nc3c2)c1 [Compound 90] |  |  | 589 |  | 676 |  |  | 5.09 |  | 5.06 | > 10000
COc1cc(OC)cc(N(CC2CC2)c2ccc3ncc(-c4cccc(N5CCOCC5)c4)nc3c2)c1 [Compound 92] | <5 |  | 363 | <5 | 661 | <5 |  | <5 |  | <5 | 
COc1cc(OC)cc(N(CC2CC2)c2ccc3ncc(-n4cccn4)nc3c2)c1 [Compound 95] | <5 |  | 1320 | <5 | > 10000 | <5 |  | <5 |  |  | 
COc1cc(OC)cc(N(CCCO)c2ccc3ncc(-c4cnc(N5CCN(C)CC5)c(C)c4)nc3c2)c1 [Compound 135] | 6.42 |  | 2 | 6.3 | 6.17 | 6.1 |  |  |  |  | 
COc1cc(OC)cc(N(CCCNC(C)C)c2ccc3ncc(-c4ccnc(NC(=O)OC(C)(C)C)c4)nc3c2)c1 [Compound 137] | 5.75 |  | 3.72 | ~5.83 | 8.32 | 6.1 |  |  |  |  | 
COc1cc(OC)cc(N(CCO)c2ccc3ncc(-c4ccnc(C(=O)NCCCCCN)c4)nc3c2)c1 [Compound 138] | <5 |  | 22.9 | 5.04 | ~31.6 | 5.1 |  |  |  |  | 
COc1cc(OC)cc(N(CCNC(C)C)c2ccc3ncc(C(=O)NCCN4CCOCC4)nc3c2)c1 [Compound 160] | 5.86 | > 10000 | 42.7 |  | 57.5 | 5.8 |  |  |  |  | 
COc1cc(OC)cc(N(CCO)c2ccc3ncc(-c4ccc(N5CCNCC5)cc4)nc3c2)c1 [Compound 166] |  | 4790 | 0.513 | ~6.1 | 3.63 | 6.7 |  |  |  |  | 
